Values belong to the compound of their own block, whether it stands above or below them.
Columns and labels:
Thymidine phosphorylase = target: T1, Thymidine phosphorylase (Mus musculus, UniProt Q99N42); assay: In vitro non-competitive inhibition of cleavage of Thymidine (dThd) phosphorylase isolated from Lewis lung carcinoma.; format: tissue-based
T1 sequence (Q99N42 whole entry): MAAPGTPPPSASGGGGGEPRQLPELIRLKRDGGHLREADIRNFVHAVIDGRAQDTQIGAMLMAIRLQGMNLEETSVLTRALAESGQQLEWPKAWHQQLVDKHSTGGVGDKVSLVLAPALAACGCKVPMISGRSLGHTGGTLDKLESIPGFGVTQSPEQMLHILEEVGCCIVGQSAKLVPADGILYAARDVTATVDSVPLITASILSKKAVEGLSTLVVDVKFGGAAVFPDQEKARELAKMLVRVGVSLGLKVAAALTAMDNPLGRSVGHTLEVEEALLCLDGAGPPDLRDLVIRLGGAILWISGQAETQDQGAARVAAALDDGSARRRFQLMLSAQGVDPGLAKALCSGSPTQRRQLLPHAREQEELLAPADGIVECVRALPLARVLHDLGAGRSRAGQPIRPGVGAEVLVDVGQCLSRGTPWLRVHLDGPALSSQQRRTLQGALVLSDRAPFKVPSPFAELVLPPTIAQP

L1210 [1] = assay: In vitro concentration required for 50% inhibition (IC50) of growth of L1210 mouse leukemia cells in culture; format: functional, cell-based
[2] = Apparent rate constant Koff for inactivation of dTMP synthase.
[3] = target: Thymidylate synthase (Lactobacillus casei); assay: In vitro competitive inhibition of dTMP synthetase with respect to substrate dUMP.
[4] = Apparent rate constant Kon for inactivation of dTMP synthase.
L1210 [5] = assay: In vitro concentration required for 50% inhibition (IC50) of growth of L1210 mouse leukemia cells in culture.; format: functional, cell-based

Ki (Thymidine phosphorylase): 1700 µM
IC50 (L1210 [1]): 3.4 µM
SMILES: O=c1[nH]c(=O)n([C@H]2C[C@H](F)[C@@H](CO)O2)cc1F

K off [2]: 0.000233 s⁻¹
Ki [3]: 130 µM
Kon [4]: 0.029 s⁻¹
SMILES: O=c1[nH]c(=O)n(C2CC(F)C(COP(=O)(O)O)O2)cc1F (stereo unspecified)

IC50 (L1210 [5]): 0.0005 µM
SMILES: O=c1[nH]c(=O)n([C@H]2C[C@H](O)[C@@H](CO)O2)cc1F [FLOXURIDINE]

Source: ChEMBL document CHEMBL1122749, “Synthesis and biological activity of 5-fluoro-2',3'-dideoxy-3'-fluorouridine and its 5'-phosphate” (J Med Chem, 1984)
